4 compounds from patent US8883773B2, “Cephem compound having pseudo-catechol group” (Shionogi & Co., Ltd., priority 2010, dated 2014) can be followed below.

Values after ≈ are worked out from the molar mass of the structure shown. Like-named read-outs stand apart in the source and are kept apart here.

Common to all, as to format: cell-based
The subject of test [1] is Acinetobacter baumannii SR24396. The test is described as follows: in vitro antimicrobial activity, MIC by agar plate incubation (Japan Society for Chemotherapy method). Conditions: 1000 cfu/spot, sensitive disc medium, read-out: Minimum Inhibitory Concentration (MIC). The procedure:
(§1) Compound (I) of the subject invention has been investigated for in vitro antimicrobial activity thereof.
(§2) (Microbe/Strain Species Nos. 1-4):
(§3) Measurement of Minimum Inhibitory Concentration (MIC: microgram/ml) was conducted according to the standard method of the Japan Society for Chemotherapy, and the amount of bacteria for inoculation was 1000 cfu/spot, and sensitive disc medium was used as the test medium, and conducted using agar plate incubation.
(§4) In the tables, the unit of the values of inhibitory activity is microgram/ml (μg/ml)

Test [2] relates to Klebsiella pneumoniae ATCC 700603. Described as above. Conditions: ATCC700603, SHV-18, ESBL producing strain, 1000 cfu/spot, sensitive disc medium, read-out: Minimum Inhibitory Concentration (MIC). How it is done: as §1, §2, §3, §4
The subject of test [3] is Pseudomonas aeruginosa SR24. Described as above. The following applies: no enzyme, Ceftazidime sensitive strain, 1000 cfu/spot, sensitive disc medium, read-out: Minimum Inhibitory Concentration (MIC). The procedure:
as §1, §2, §3, §4

Test [4] deals with Pseudomonas aeruginosa SR27060. Described as above. The following applies: IMP-1, MBL producing strain (carbapenem resistant strain), 1000 cfu/spot, sensitive disc medium, read-out: Minimum Inhibitory Concentration (MIC). The procedure: as §1, §2, §3, §4
Test [5] has as its system Stenotrohomonas maltophilia SR21970. The experiment in a line: in vitro antimicrobial activity, MIC by agar plate incubation (CLSI method, Mueller-Hinton agar). The following applies: L-1, MBL producing strain (carbapenem resistant strain), 10000 cfu/spot, read-out: Minimum Inhibitory Concentration (MIC). The procedure:
as §1
(Microbe/Strain Species Nos. 5):
Measurement of Minimum Inhibitory Concentration (MIC, microgram/ml) was conducted according to the CLSI (Clinical and Laboratory Standards Institute) and the amount of bacteria for inoculation was 10000 cfu/spot, and Mueller-Hinton agar medium was used as the test medium, and conducted using agar plate incubation.
as §4

[6] abbreviates: SR24396, Acinetobacter baumannii SR24395 (Table 10).

As for `CC(C)(O/N=C(\C(=O)N[C@@H]1C(=O)N2C(C(=O)O)=C(C[N+]34CCC(CNC(=O)c5cc(=O)c(O)c[nH]5)(CC3)CC4)CS[C@H]12)c1csc(N)n1)C(=O)[O-]` [Compound I-2], the MIC in test [1] (setting [6]) was 1 µg/mL (≈ 1.34 µM); in test [2], 1 µg/mL (≈ 1.34 µM); in test [3], 0.125 µg/mL (≈ 0.168 µM); in test [4], 1 µg/mL (≈ 1.34 µM).

Take `CC(C)(O/N=C(\C(=O)N[C@@H]1C(=O)N2C(C(=O)[O-])=C(C[N+]3(CCNC(=O)c4cc(=O)c(O)c[nH]4)CCCC3)CS[C@H]12)c1csc(N)n1)C(=O)[O][Na]` [Compound I-4]: the MIC in test [1] (setting [6]) stood at 0.5 µg/mL; in test [2], 0.25 µg/mL; in test [3] it was 0.063 µg/mL; in test [4], 0.25 µg/mL; in test [5], 1 µg/mL.

Regarding `CC(C)(O/N=C(\C(=O)N[C@@H]1C(=O)N2C(C(=O)O)=C(C[N+]3(CCNC(=O)c4cc(=O)c(O)cn4O)CCCC3)CS[C@H]12)c1csc(N)n1)C(=O)[O-]` [Compound I-6], the MIC in test [1] (setting [6]) was determined as 0.25 µg/mL (≈ 0.34 µM); in test [2], 0.25 µg/mL (≈ 0.34 µM); in test [3], 0.063 µg/mL (≈ 0.0857 µM); in test [4], 0.25 µg/mL (≈ 0.34 µM); in test [5], 1 µg/mL (≈ 1.36 µM).

Turning to `Nc1nc(/C(=N/O[C@@H](CC(=O)O)C(=O)[O-])C(=O)N[C@@H]2C(=O)N3C(C(=O)O)=C(C[N+]45CCC[C@H]4CN(C(=O)c4cc(=O)c(O)c[nH]4)CC5)CS[C@H]23)cs1` (stereo partly shown) [Compound I-11], the MIC was 0.25 µg/mL (≈ 0.329 µM) in test [1] (Acinetobacter baumannii SR24396 (Table 11)); 0.5 µg/mL (≈ 0.657 µM) in test [2]; 0.25 µg/mL (≈ 0.329 µM) in test [3]; 1 µg/mL (≈ 1.31 µM) in test [4]; 1 µg/mL (≈ 1.31 µM) in test [5].
